Measurements: patent publication US20260284214A1, “EXATECAN DERIVATIVE AND ANTIBODY-DRUG CONJUGATE THEREOF” (priority 2023, published 2026)

How the values were obtained:
BxPC-3 cells = experiment: Cell inhibitory activity experiment of cytotoxic drug (CellTiter-Glo, 72 hours); assay type: cell-based, human; settings: Homo sapiens
Description: (§1) Human pancreatic adenocarcinoma cells BxPC-3 (ATCC, article number: CRL-1687) and human pharyngeal squamous cell carcinoma cells FaDu (ATCC, article number: HTB-43) were washed with PBS, then the cells were digested with 0.25% Trypsin-EDTA trypsin for about 3 minutes, and the digestion was terminated with a complete cell culture medium. The cells were centrifuged at 1000 rpm for 5 minutes, the supernatant was discarded, and the cells were resuspended with a complete cell culture medium, counted by a cell counter, and adjusted to a required density. Each well was added with 50 μL of the cell suspension according to 3000 cells per well, and the cell plate was placed into a 5% CO2 cell incubator at 37° C. to incubate the cells for 12-16 hours.
(§2) The cell plate was taken out of the incubator to observe a cell adhesion state, and after cell adhesion, each well was added with 50 μL of the sample (starting from 10 μM, diluted 5 times, 9 concentrations), shaken gently, and then placed into an incubator to incubate the cells for 72 hours. Each well was added with a Cell Titer-GLO™ (Promega, article number: G7572) working solution according to 100 μL/well and shaken gently to lyse the cells, and the plate was read on a microplate reader.
(§3) Data analysis: a graph was made by GraphPad Prism 7.0 software with a Log value of a sample concentration as an abscissa and Cytotoxicity % as an ordinate, and data were subjected to Nonlinear regression (curve fit) analysis to obtain an IC50 value of each compound.

FaDu cells = experiment: as above; assay type: cell-based, human; settings: Homo sapiens
Description: as §1, §2, §3

Compound	IC50 (BxPC-3 cells)	IC50 (FaDu cells)
CC[C@@]1(O)C(=O)OCc2c1cc1n(c2=O)Cc2c-1nc1cc(F)c(C)c3c1c2[C@@H](NC(=O)N(CC#N)CCO)CC3 [Example 1, 1-(cyanomethyl)-3-((1S,9S)-9-ethyl-5-fluoro-9-hydroxy-4-methyl-10,13-dioxo-2,3,9,10,13,15-hexahydro-1H,12H-benzo[de]pyrano[3′,4′:6,7]indolizino[1,2-b]quinoline-1-yl)-1-(2-hydroxyethyl)urea]	8.27 nM	6.68 nM
CC[C@@]1(O)C(=O)OCc2c1cc1n(c2=O)Cc2c-1nc1cc(F)c(C)c3c1c2[C@@H](NC(=O)N1C[C@H](O)CO1)CC3 [Example 4, (S)—N-((1S,9S)-9-ethyl-5-fluoro-9-hydroxy-4-methyl-10,13-dioxo-2,3,9,10,13,15-hexahydro-1H,12H-benzo[de]pyrano[3′,4′:6,7]indolizino[1,2-b]quinolin-1-yl)-4-hydroxyisoxazolidine-2-carboxamide]	1.84 nM	2.95 nM
CC[C@@]1(O)C(=O)OCc2c1cc1n(c2=O)Cc2c-1nc1cc(F)c(C)c3c1c2[C@@H](NC(=O)N1C[C@@H](O)CO1)CC3 [Example 5, (R)—N-((1S,9S)-9-ethyl-5-fluoro-9-hydroxy-4-methyl-10,13-dioxo-2,3,9,10,13,15-hexahydro-1H,12H-benzo[de]pyrano[3′,4′:6,7]indolizino[1,2-b]quinolin-1-yl)-4-hydroxyisoxazoline-2-carboxamide]	< 0.1 nM	0.75 nM
CC[C@@]1(O)C(=O)OCc2c1cc1n(c2=O)Cc2c-1nc1cc(F)c(C)c3c1c2[C@@H](NC(=O)N(O)CCO)CC3 [Example 7, 3-((1S,9S)-9-ethyl-5-fluoro-9-hydroxy-4-methyl-10,13-dioxo-2,3,9,10,13,15-hexahydro-1H,12H-benzo[de]pyrano[3′,4′:6,7]indolizino[1,2-b]quinolin-1-yl)-1-hydroxy-1-(2-hydroxyethyl)urea]	0.76 nM	< 0.1 nM
CC[C@@]1(O)C(=O)OCc2c1cc1n(c2=O)Cc2c-1nc1cc(F)c(C)c3c1c2[C@@H](NC(=O)N(CCO)OC)CC3 [Example 8, 3-((1S,9S)-9-ethyl-5-fluoro-9-hydroxy-4-methyl-10,13-dioxo-2,3,9,10,13,15-hexahydro-1H,12H-benzo[de]pyrano[3′,4′:6,7]indolizino[1,2-b]quinolin-1-yl)-1-(2-hydroxyethyl)-1-methoxyurea]	1.45 nM	0.13 nM
CC[C@@]1(O)C(=O)OCc2c1cc1n(c2=O)Cc2c-1nc1cc(F)c(C)c3c1c2[C@@H](NC(=O)N(C#N)CCO)CC3 [Example 9, 1-cyano-3-((1S,9S)-9-ethyl-5-fluoro-9-hydroxy-4-methyl-10,13-dioxo-2,3,9,10,13,15-hexahydro-1H,12H-benzo[de]pyrano[3′,4′:6,7]indolizino[1,2-b]quinolin-1-yl)-1-(2-hydroxyethyl)urea]	2.15 nM	2.34 nM
CC[C@@]1(O)C(=O)OCc2c1cc1n(c2=O)Cc2c-1nc1cc(F)c(C)c3c1c2[C@@H](NC(=O)N1CC(O)C1)CC3 [Example 10, N-((1S,9S)-9-ethyl-5-fluoro-9-hydroxy-4-methyl-10,13-dioxo-2,3,9,10,13,15-hexahydro-1H,12H-benzo[de]pyrano[3′,4′:6,7]indolizino[1,2-b]quinolin-1-yl)-3-hydroxyazetidine-1-carboxamide]	5.1 nM	6.04 nM
CC[C@@]1(O)C(=O)OCc2c1cc1n(c2=O)Cc2c-1nc1cc(F)c(C)c3c1c2[C@@H](NC(=O)N[C@H]1C[C@H](O)C1)CC3 [Example 12, 1-((1S,9S)-9-ethyl-5-fluoro-9-hydroxy-4-methyl-10,13-dioxo-2,3,9,10,13,15-hexahydro-1H,12H-benzo[de]pyrano[3′,4′:6,7]indolizino[1,2-b]quinolin-1-yl)-3-((1r,3S)-3-hydroxycyclobutyl)urea]	5.77 nM	42 nM
CC[C@@]1(O)C(=O)OCc2c1cc1n(c2=O)Cc2c-1nc1cc(F)c(C)c3c1c2[C@@H](NC(=O)N1CC[C@H](O)C1)CC3 [Example 13, (S)—N-((1S,9S)-9-ethyl-5-fluoro-9-hydroxy-4-methyl-10,13-dioxo-2,3,9,10,13,15-hexahydro-1H,12H-benzo[de]pyrano[3′,4′:6,7]indolizino[1,2-b]quinolin-1-yl)-3-hydroxypyrrolidine-1-carboxamide]	2.49 nM	36 nM
CC[C@@]1(O)C(=O)OCc2c1cc1n(c2=O)Cc2c-1nc1cc(F)c(C)c3c1c2[C@@H](NC(=O)N1CC[C@@H](O)C1)CC3 [Example 14, (R)—N-((1S,9S)-9-ethyl-5-fluoro-9-hydroxy-4-methyl-10,13-dioxo-2,3,9,10,13,15-hexahydro-1H,12H-benzo[de]pyrano[3′,4′:6,7]indolizino[1,2-b]quinolin-1-yl)-3-hydroxypyrrolidine-1-carboxamide]	6.27 nM	57.8 nM
CC[C@@]1(O)C(=O)OCc2c1cc1n(c2=O)Cc2c-1nc1cc(F)c(C)c3c1c2[C@@H](NC(=O)N1CC(N)C1)CC3 [Example 15, 3-amino-N-((1S,9S)-9-ethyl-5-fluoro-9-hydroxy-4-methyl-10,13-dioxo-2,3,9,10,13,15-hexahydro-1H,12H-benzo[de]pyrano[3′,4′:6,7]indolizino[1,2-b]quinolin-1-yl) azetidine-1-carboxamide]	20.5 nM	11.4 nM
CC[C@@]1(O)C(=O)OCc2c1cc1n(c2=O)Cc2c-1nc1cc(F)c(C)c3c1c2[C@@H](NC(=O)N[C@H]1C[C@@H](N)C1)CC3 [Example 16]	7.93 nM	4.33 nM
CC[C@@]1(O)C(=O)OCc2c1cc1n(c2=O)Cc2c-1nc1cc(F)c(C)c3c1c2[C@@H](NC(=O)N[C@H]1C[C@H](N)C1)CC3 [Example 17]	4.04 nM	2.26 nM
CC[C@@]1(O)C(=O)OCc2c1cc1n(c2=O)Cc2c-1nc1cc(F)c(C)c3c1c2[C@@H](NC(=O)NC1CNC1)CC3 [Example 18, 1-(azetidin-3-yl)-3-((1S,9S)-9-ethyl-5-fluoro-9-hydroxy-4-methyl-10,13-dioxo-2,3,9,10,13,15-hexahydro-1H,12H-benzo[de]pyrano[3′,4′:6,7]indolizino[1,2-b]quinolin-1-yl)urea]	40.8 nM	16.9 nM
CC[C@@]1(O)C(=O)OCc2c1cc1n(c2=O)Cc2c-1nc1cc(F)c(C)c3c1c2[C@@H](NC(=O)O[C@H]1C[C@@H](N)C1)CC3 [Example 19, (1S,3R)-3-aminocyclobutyl((1S,9S)-9-ethyl-5-fluoro-9-hydroxy-4-methyl-10,13-dioxo-2,3,9,10,13,15-hexahydro-1H,12H-benzo[de]pyrano[3′,4′:6,7]indolizino[1,2-b]quinolin-1-yl)carbamate]	3.69 nM	3.97 nM
CC[C@@]1(O)C(=O)OCc2c1cc1n(c2=O)Cc2c-1nc1cc(F)c(C)c3c1c2[C@@H](NC(=O)O[C@H]1C[C@H](N)C1)CC3 [Example 20, (1R,3S)-3-aminocyclobutyl((1S,9S)-9-ethyl-5-fluoro-9-hydroxy-4-methyl-10,13-dioxo-2,3,9,10,13,15-hexahydro-1H,12H-benzo[de]pyrano[3′,4′:6,7]indolizino[1,2-b]quinolin-1-yl)carbamate]	3.05 nM	2 nM
CC[C@@]1(O)C(=O)OCc2c1cc1n(c2=O)Cc2c-1nc1cc(F)c(C)c3c1c2[C@@H](NC(=O)OC1CNC1)CC3 [Example 21, azetidine-3-yl((1S,9S)-9-ethyl-5-fluoro-9-hydroxy-4-methyl-10,13-dioxo-2,3,9,10,13,15-hexahydro-1H,12H-benzo[de]pyrano[3′,4′:6,7]indolizino[1,2-b]quinolin-1-yl)carbamate]	29.2 nM	19.8 nM
